Legend:
[1] = tested on: ANKA strain of P. berghei; assay: Single dose in vivo screen in P. berghei-infected NMRI mice; settings: for Survival (days) 30 mg/kg SSV po / Activity (%) 30 mg/kg SSV po: single 30 mg/kg po dose in SSV one day post-infection; for Activity (%) 30 mg/kg SSV po: percent reduction in parasitemia on day three post-infection; for Cures 30 mg/kg SSV po: single 30 mg/kg po dose in SSV, cure = survival to day 30 post-infection, groups of five mice
Method: Activity of 1,2,4-trioxolanes against P. berghei in vivo. In the single dose in vivo screen, NMRI mice infected with the ANKA strain of P. berghei (groups of five mice) were treated one day post-infection with trioxolanes dissolved or suspended in standard suspending vehicle (SSV). The SSV consists of either 0.5% w/v carboxymethyl cellulose, 0.5% v/v benzyl alcohol, 0.4% v/v Tween 80, and 0.9% w/v sodium chloride in water or 0.5% hydroxypropylmethylcellulose 0.4% v/s Tween 80, and 0.5% v/v benzyl alcohol in water. […] Antimalarial activity was measured by percent reduction in parasitemia on day three post-infection and survival times compared to an untreated control group. Survival to day 30 post-infection is considered to be a cure in this model.

[2] = tested on: P. berghei; assay: Prophylactic activity against P. berghei in vivo (mice dosed before infection); settings: for Cures 24 h prior to infection (30 mg/kg) / Activity (%) 24 h prior to infection (30 mg/kg): single 30 mg/kg oral dose 24 h prior to infection; for Cures 24 h prior to infection (30 mg/kg) / Cures 48 h prior to infection (100 mg/kg): n=5 mice; for Activity (%) 24 h prior to infection (30 mg/kg) / Activity (%) 48 h prior to infection (100 mg/kg): parasitemia day 3 post-infection; for Cures 48 h prior to infection (100 mg/kg) / Activity (%) 48 h prior to infection (100 mg/kg): single 100 mg/kg oral dose 48 h prior to infection
Method: All groups (n=5 mice per group) including an untreated control group, were infected at the same time and parasitemia was determined for each animal on day 3 post-infection and compared with the level of parasitemia in control animals.

[3] = Blood stability studies in freshly collected rat blood; format: in vitro ADME; set-up: unit not given here
Method: Blood stability studies: Compounds were incubated at 37° C. in freshly collected rat blood. At selected time points, duplicate aliquots of the whole blood were sampled, centrifuged and the plasma assayed for parent compound by LC-MS.

[4] = Pharmacokinetic studies in rats (oral); format: in vivo, rat; settings: oral 10 mg/kg, 10 mg/kg
Method: Pharmacokinetic studies in rats: Compounds were administered orally to rats (n=2) at a dose of 10 mg/kg in a suspension formulation containing hydroxypropylmethyl cellulose, Tween 80, benzyl alcohol, and water. […] Oral bioavailability for each compound was calculated relative to an IV dose for each compound in a suitable vehicle.

[5] = tested on: Embryonic red blood cells (RBCs); assay: Rat whole embryo culture (WEC) model, embryotoxicity
Description: Embryonic red blood cells (RBCs) were the primary target leading to anemia and subsequent hypoxia in embryonic tissues.
Longo, M.; Zanoncelli, S.; Manera, D.; Brughera, M.; Colombo, P.; Lansen J.; Mazué, G.; Gomes, M.; Taylor W. R. J.; Olliaro, P. Effects of the Antimalarial Drug Dihydroartemisinin (DHA) on Rat Embryos In Vitro. Repro. Tox. 2006, 21, 83-93.

SMILES | Survival (days) 30 mg/kg SSV po [1] [days] | Activity (%) 30 mg/kg SSV po [1] [%] | Cures 30 mg/kg SSV po [1] | Cures 24 h prior to infection (30 mg/kg) [2] | Activity (%) 24 h prior to infection (30 mg/kg) [2] [%] | Cures 48 h prior to infection (100 mg/kg) [2] | Activity (%) 48 h prior to infection (100 mg/kg) [2] [%] | Stability in Rat Blood (t1/2) at 37° C. [3] | In Vivo Oral t1/2 at 10 mg/kg [4] [h] | Oral Bioavailability at 10 mg/kg (%) ([4]; relative to an IV dose) | Malaria-curative with a single dose ([1]; single dose, dose not stated) | NOAEL for embryonic RBCs [5] [µg/mL]
O=C1CCC([C@H]2CC[C@]3(CC2)OOC2(O3)C3CC4CC(C3)CC2C4)CC1 (some centres unmarked) [OZ495] | 26.8 | 99.3 | 3/5 | 1/5 | >99.9 | 0/5 | >99.9 | – | – | – | – | –
CS(=O)(=O)O.NCCCCCOc1ccc(C2CCC3(CC2)OOC2(O3)C3CC4CC(C3)CC2C4)cc1 (centres unmarked) [OZ498] | – | – | – | 4/5 | 99.8 | 5/5 | 99.8 | – | – | – | – | –
CC(C)(O)CNCCCOc1ccc([C@H]2CC[C@]3(CC2)OOC2(O3)C3CC4CC(C3)CC2C4)cc1.Cc1ccc(S(=O)(=O)O)cc1 (some centres unmarked) [OZ505] | – | – | – | 2/5 | >99.9 | 5/5 | 99.5 | – | – | – | – | –
O[C@H]1CC[C@@H](C2CCC3(CC2)OOC2(O3)C3CC4CC(C3)CC2C4)CC1 (some centres unmarked) [OZ508] | 24.4 | 99.8 | 3/5 | 4/5 | 99.7 | 4/5 | 99.8 | – | – | – | – | –
OC1CCN(CCOc2ccc([C@H]3CC[C@]4(CC3)OOC3(O4)C4CC5CC(C4)CC3C5)cc2)CC1 (some centres unmarked) [OZ513] | – | – | – | 1/5 | 99.9 | 5/5 | 99.7 | – | – | – | – | –
Cc1ccc(S(=O)(=O)O)cc1.O[C@H]1CC[C@H](NCCCOc2ccc([C@H]3CC[C@]4(CC3)OOC3(O4)C4CC5CC(C4)CC3C5)cc2)CC1 (some centres unmarked) [OZ535] | – | – | – | 0/5 | >99.9 | 5/5 | >99.9 | – | – | – | – | –
CS(=O)(=O)O.NC1CCC(Oc2ccc(C3CCC4(CC3)OOC3(O4)C4CC5CC(C4)CC3C5)cc2)CC1 (centres unmarked) [OZ537] | – | – | – | 5/5 | >99.9 | 5/5 | >99.9 | >17 | 11.8 | 29 | – | –
CC(C)(N)CCOc1ccc(C2CCC3(CC2)OOC2(O3)C3CC4CC(C3)CC2C4)cc1.Cc1ccc(S(=O)(=O)O)cc1 (centres unmarked) [OZ539] | 25.2 | 99.7 | 3/5 | 4/5 | >99.9 | 5/5 | >99.9 | – | – | – | malaria-curative in some instances with a single dose | –
C[C@@H]1CC[C@H]2[C@@H](C)C(=O)O[C@@H]3O[C@@]4(C)CC[C@@H]1[C@]32OO4 [artemisinin] | – | – | – | – | – | – | – | – | – | – | – | 0.1
C[C@H]1[C@@H](O)O[C@@H]2O[C@@]3(C)CC[C@H]4[C@H](C)CC[C@@H]1[C@@]24OO3 [dihydroartemisinin] | – | – | – | – | – | – | – | – | – | – | – | 0.01

Reference: patent US8067620B2, “Dispiro 1,2,4-trioxolane antimalarials” (Medicines for Malaria Venture MMV, priority 2005, dated 2011)
